Source: paper PMC6858373 (Scientific Reports, 2019)
Like-named read-outs stand apart in the source and are kept apart here.

What was measured:
in vitro = details: human, Clone V cells
[1] = target: full-length P. pyralis luciferase (Photinus pyralis, UniProt P08659, K549A/L550V/N119G/N50D/S548I); assay type: cell-based; details: CC_NCI screening; normalized to on-plate 0.3% DMSO controls
Clone V cells = experiment: CellTiter Blue (CTB) cell viability counter-screen; details: CC_NCI screening; normalized to on-plate 0.3% DMSO controls
[2] = target: T1, FGF14:Nav1.6 C-tail complex (Homo sapiens, UniProt Q92915+Q9UQD0); experiment: Split-luciferase complementation assay (LCA) in Clone V double stable HEK293 cells; assay type: cell-based; details: for Split Luciferase Assay Z-score Set 1 / Split Luciferase Assay % Lum Set 1 / Split Luciferase Assay Z-score Set 2 / Split Luciferase Assay %Lum Set 2: CC_NCI screening; for Split Luciferase Assay Z-score Set 1 / Split Luciferase Assay % Lum Set 1: biological replicate Set 1; for Split Luciferase Assay Z-score Set 1 / Split Luciferase Assay Z-score Set 2: normalized to on-plate 0.3% DMSO controls; for Split Luciferase Assay % Lum Set 1 / Split Luciferase Assay %Lum Set 2: normalized to on-plate 0.3% DMSO controls (n=16 per plate); for Split Luciferase Assay Z-score Set 2 / Split Luciferase Assay %Lum Set 2: biological replicate Set 2; for Split Luciferase Assay %Lum Avg: average of Set 1 and Set 2, normalized to 0.3% DMSO controls
T1 construct: polymerase chain reaction (PCR) amplification of the FGF14 open reading frame (nt 1–855); C-terminal fragment of Nav1.6 (amino acids 1763–1976) fused with CD4ΔC-tail (amino acids 1–395); expressed in transfected cells
T1 sequence (Q92915 1-252 isoform Q92915-2): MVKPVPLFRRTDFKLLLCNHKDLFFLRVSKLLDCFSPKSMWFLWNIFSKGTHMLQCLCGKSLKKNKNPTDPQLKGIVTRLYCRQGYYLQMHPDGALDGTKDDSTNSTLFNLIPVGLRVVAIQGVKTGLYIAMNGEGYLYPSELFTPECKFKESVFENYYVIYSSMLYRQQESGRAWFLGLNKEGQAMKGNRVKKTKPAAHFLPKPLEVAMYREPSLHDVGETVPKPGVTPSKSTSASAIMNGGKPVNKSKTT
T1 sequence (Q9UQD0 1763-1976 limits assumed): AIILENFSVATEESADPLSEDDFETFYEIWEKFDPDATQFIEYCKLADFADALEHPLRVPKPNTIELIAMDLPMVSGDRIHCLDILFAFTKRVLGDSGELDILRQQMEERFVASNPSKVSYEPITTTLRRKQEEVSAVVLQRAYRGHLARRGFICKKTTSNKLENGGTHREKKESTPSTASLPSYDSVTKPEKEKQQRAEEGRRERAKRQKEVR

full-length P. pyralis luciferase, sequence (P08659 whole entry N50D/N119G/S548I/K549A/L550V, looked up): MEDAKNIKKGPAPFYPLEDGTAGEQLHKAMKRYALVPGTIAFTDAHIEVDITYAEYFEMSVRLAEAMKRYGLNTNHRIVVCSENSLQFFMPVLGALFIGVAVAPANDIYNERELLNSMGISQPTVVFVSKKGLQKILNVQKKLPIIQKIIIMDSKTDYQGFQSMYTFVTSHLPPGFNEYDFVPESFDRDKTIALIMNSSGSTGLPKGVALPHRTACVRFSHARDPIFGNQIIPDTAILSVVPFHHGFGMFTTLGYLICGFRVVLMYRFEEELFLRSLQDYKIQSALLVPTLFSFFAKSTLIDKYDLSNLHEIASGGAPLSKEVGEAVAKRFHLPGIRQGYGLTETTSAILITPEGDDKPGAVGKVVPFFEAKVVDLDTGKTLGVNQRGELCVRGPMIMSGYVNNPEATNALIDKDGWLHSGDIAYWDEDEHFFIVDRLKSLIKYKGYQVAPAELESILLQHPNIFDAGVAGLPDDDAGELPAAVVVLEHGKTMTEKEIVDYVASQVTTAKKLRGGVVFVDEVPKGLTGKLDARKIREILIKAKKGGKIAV

Compound | viability at 16 h, 30 µM (in vitro) | Luciferase Assay % Lum (full-length luciferase counter-screen) [1] | Luciferase Assay Z-score (full-length luciferase counter-screen) [1] | Toxicity Assay Z-score (CTB cell viability) (Clone V cells) | Z-score (LCA primary screening) ([2]; 30 µM, 384-well, average of primary screening (n = 2), vs on-plate 0.3% DMSO) | dose-response behavior of repurchased compounds ([2]; 10-point dose response 0.25-50 µM, Clone V cells) | Split Luciferase Assay Z-score Set 1 [2] | Split Luciferase Assay % Lum Set 1 [2] | Split Luciferase Assay Z-score Set 2 [2] | Split Luciferase Assay %Lum Set 2 [2] | IMin (% Luminescence) ([2]; antagonists, Clone V cells, 384-well, normalized to DMSO) | Split Luciferase Assay %Lum Avg [2] | action toward the FGF14:Nav1.6 C-tail interaction ([2]; dose-dependency validation using fresh compound samples) | IC50 ([2]; estimated, 8-point dose response 0.25-30 µM, n = 4 per concentration, library compounds, read-out: IC50) | IC50 ([2]; repurchased compounds, 10-point dose response 0.25-50 µM, n = 8 per concentration, Clone V cells, 384-well, read-out: in-cell IC50)
C[C@@H](Oc1cc(-c2cnn(C3CCNCC3)c2)cnc1N)c1c(Cl)ccc(F)c1Cl [Crizotinib, reference compound] | 102% | 91.93% | -1.03 | 0.27 | −5.29 | purely inhibitory effects | -5.24 | 35.11% | -5.34 | 34.33% | 34.72 % Luminescence | 34.72% | acted as antagonists | 12.2 µM | 15.5 µM
CC(=O)O[C@@]12CO[C@@H]1C[C@H](O)[C@@]1(C)C(=O)[C@H](O)C3=C(C)[C@@H](OC(=O)[C@H](O)[C@@H](NC(=O)OC(C)(C)C)c4ccccc4)C[C@@](O)([C@@H](OC(=O)c4ccccc4)[C@H]21)C3(C)C [Docetaxel] | 107% | 101.54% | 0.20 | 0.98 |  |  | 6.00 | 174.26% | 4.48 | 155.01% |  | 164.63% |  |  | 
CCCCCCCCc1ccc(CCC(N)(CO)CO)cc1 [Fingolimod] | 110% | 94.97% | -0.64 | 1.42 |  |  | -0.06 | 99.25% | 0.58 | 107.15% |  | 103.20% |  |  | 
Nc1ccccc1NC(=O)c1ccc(CNc2nccc(-c3cccnc3)n2)cc1 [MGCD0103] | 104% | 90.12% | -1.27 | 0.52 |  |  | -1.82 | 77.51% | -1.96 | 75.94% |  | 76.73% |  |  | 
CS(=O)(=O)c1ccc(C2=C(c3ccccc3)C(=O)OC2)cc1 [ROFECOXIB] | 109% | 102.66% | 0.34 | 1.28 |  |  | 1.78 | 122.08% |  |  |  | 87.57% |  |  | 
Oc1c2ccccc2c2c3c(cccc13)N=N2 [SP600125] | 109% | 110.92% | 1.40 | 1.21 |  |  | 0.99 | 112.30% | -1.20 | 85.31% |  | 98.80% |  |  | 
CO[C@H]1C[C@@H]2CC[C@@H](C)[C@@](O)(O2)C(=O)C(=O)N2CCCC[C@H]2C(=O)O[C@H]([C@H](C)C[C@@H]2CC[C@@H](O)[C@H](OC)C2)CC(=O)[C@H](C)/C=C(\C)[C@@H](O)[C@@H](OC)C(=O)[C@H](C)C[C@H](C)/C=C/C=C/C=C/1C [Sirolimus] | 103% | 80.58% | -2.49 | 0.38 |  |  | 1.26 | 115.56% | 0.41 | 105.07% |  | 110.32% |  |  | 
Cc1cc(Nc2cc(N3CCN(C)CC3)nc(Sc3ccc(NC(=O)C4CC4)cc3)n2)[nH]n1 [TOZASERTIB] | 106% | 73.72% | -3.37 | 0.86 |  |  | -1.55 | 80.77% | -6.02 | 26.01% |  | 53.39% |  |  | 
